This is an account of results in patent publication US7977069B2, “DNA encoding a CCK-8S G-protein coupled receptor, and vectors, transformants, cell kits, and methods employing such DNA” (Daiichi Sankyo Company, Limited, priority 2003, dated 2011).

One experiment concerns CHO-K1 cell line. Put plainly: Change in intracellular Ca2+ concentration in non-transfected CHO-K1 host cell line (negative control cells). The class given is cell-based, Chinese hamster. The following applies: for increase in intracellular Ca2+ concentration: CHO-K1 cell line not transfected, peptide final concentration 1 nM (Example 5). On the procedure:
(§1) A specific method for measuring a change in intracellular Ca^2+ concentration in the HA-ph01207#10-6 cell line produced by CCK-8S (SEQ ID NO: 14) and the results thereof are described below. HA-ph01207#10-6 cell line was seeded in 96-well plates (plates with a black wall surface and transparent bottom) at a cell count of 2×10^4/100 μL medium/well and cultured at 37° C. in the presence of 5% CO2. DMEM/F12 (Gibco) containing 10% fetal calf serum (Moregate BioTech) was used as medium. The next day, 50 μL of medium was extracted from each well, and 50 μL of loading buffer was added each well and allowed to react at room temperature for 1.5 h so as to incorporate fluorescent dye contained in the loading buffer into cells. The loading buffer was prepared by dissolving component A of the FLIPR Calcium 3 Assay Kit (Molecular Devices Corp.) with a solution in which 0.1 mL of 500 mM probenecid (Sigma) was added to 9.9 mL of component B. After the reaction, a change in the fluorescence intensity upon addition of CCK-BS (Peptide Institute, Osaka, Japan) was measured along with time for each well using FLEXstation (Molecular Devices Corp.). Measurement was also performed in a similar manner for CCK-8NS (Peptide Institute, Osaka, Japan) and CCK-4 (Peptide Institute). For CCK-8S (SEQ ID NO: 14), 0.52 mg thereof was dissolved with 4.5 mL of 1% NaHCO3 (Wako) to prepare a 0.1 mM concentration solution. For CCK-8NS, after dissolving 0.53 mg thereof with 0.50 mL of dimethylsulfoxide (DMSO, Sigma), 4.50 mL of redistilled water was added thereto to prepare a 0.1 mM concentration solution. For CCK-4, after dissolving 0.54 mg thereof with 0.46 mL of DMSO, 4.09 mL of redistilled water was added thereto to prepare a 0.2 mM concentration solution. CCK-8S (SEQ ID NO: 14), CCK-8NS and CCK-4 were each diluted with phosphate buffered saline (PBS) to make a 5 nM solution, and measurement was performed after adding 25 μL (final concentration 1 nM) of each. As a positive control that induces an increase in intracellular Ca^2+ concentration, A23187 (Calbiochem, Calif.) was used at a final concentration of 10 μM. As a negative control, CHO-K1 cell line that was used as a host in production of the HA-ph01207#10-6 cell line was used. Since the ph01207 expression vector was not transfected into the CHO-K1 cell line, the ph01207 gene product was not expressed therein.
(§2) Using stably expressing cell line of a splicing variant of ph01207 gene, a change in intracellular calcium concentration (Ca^2+) caused by CCK-8S was measured using the same method described in Example 5. As the stably expressing cell line of the splicing variant of ph01207 gene, the stably expressing cell line constructed in Example 7 was used. Further, using stable expressing cell line of hk01941 gene, the same investigation was conducted. As the stably expressing cell line of hk01941 gene, the stably expressing cell line constructed in Example 7 was used. As a control, a host cell which was not transfected with 7tmHR expression vector or hk01941 expression vector was used.
(§3) The cell line was seeded in 96-well plates (plates with a black wall surface and transparent bottom) at 3×10^4 cells/100 μL medium/well and cultured overnight at 37° C. in the presence of 5% CO2. The next day, 50 μL of the medium was extracted from each well, and 50 μL of loading buffer was added to each well to allow for a reaction at room temperature for 1 h so as to incorporate fluorescent dye contained in the loading buffer into cells. The loading buffer was prepared by the same method as described in Example 5. After the reaction, a change in the fluorescence intensity upon addition of CCK-8S was measured along with time for each well using FLEXstation (Molecular Devices Corp.). CCK-8S was used at a final concentration of 10 μM-1 μM. Further, A23187 was used at a final concentration of 20 μM as a positive control of the assay. […]

The target of another experiment is T1, 7tmHR gene product (Homo sapiens, UniProt O60241).
T1 construct: three kinds of full length cDNA clones were obtained; expressed in transfected cells; host or cells: CHO-K1 (7tmHR/pcDNA3.1)
Briefly: Change in intracellular Ca2+ concentration in 7tmHR stably expressing cell line. The following applies: A23187 20 μM. It is filed as cell-based. On the procedure: as §2
as §3, with “Corp.).” for “Corp.). CCK-8S was used at a final concentration of 10 μM-1 μM. Further, A23187 was used at a final concentration of 20 μM as a positive control of the assay.”

A further experiment relates to hk01941 gene product. Put plainly: Change in intracellular Ca2+ concentration in hk01941 stably expressing cell line. Conditions: A23187 20 μM. The class given is cell-based, human. On the procedure:
as §2
as §3, with “Corp.).” for “Corp.). CCK-8S was used at a final concentration of 10 μM-1 μM. Further, A23187 was used at a final concentration of 20 μM as a positive control of the assay.”

For a further experiment, the system named is variant 3 gene product. Put plainly: Change in intracellular Ca2+ concentration in variant 3 stably expressing cell line. The class given is cell-based, human. Conditions: A23187 20 μM. On the procedure:
The function of variant 3 gene was analyzed using stably expressing cell line of variant 3 gene by investigating a change in intracellular calcium concentration (Ca^2+) caused by CCK-8S. The change in intracellular calcium concentration (Ca^2+) was measured using the same method described in Example 5. The stably expressing cell line of variant 3 gene was prepared using the variant 3 gene expression vector constructed in Example 7 by the method similar to the method described in Example 7.
The cell line was seeded in 96-well plates (plates with a black wall surface and transparent bottom) at 3×10^4 cells/100 μL medium/well and cultured overnight at 37° C. in the presence of 5% CO2. The next day, 50 μL of the medium was exited from each well, and 50 μL of loading buffer was added to each well to allow for a reaction at room temperature for 1 h so as to incorporate fluorescent dye contained in the loading buffer into cells. The loading buffer was prepared by the same method as described in Example 5. After the reaction, a change in the fluorescence intensity upon addition of CCK-8S was measured along with time for each well for 40 sec using FLEXstation (Molecular Devices Corp.). CCK-8S was used at a final concentration of 10 pM-1 μM. Further, A23187 was used at a final concentration of 20 μM as a positive control of the assay.

For experiment [1], the target named is T2, protein encoded by ph01207 (Homo sapiens, UniProt O60241, DEL308-362).
T2 construct: expressed in transfected cells; host or cells: CHO-K1 (HA-ph01207#10-6, FERM BP-10101)
T2 sequence (O60241 with tags, fused parts or gaps DEL308-362): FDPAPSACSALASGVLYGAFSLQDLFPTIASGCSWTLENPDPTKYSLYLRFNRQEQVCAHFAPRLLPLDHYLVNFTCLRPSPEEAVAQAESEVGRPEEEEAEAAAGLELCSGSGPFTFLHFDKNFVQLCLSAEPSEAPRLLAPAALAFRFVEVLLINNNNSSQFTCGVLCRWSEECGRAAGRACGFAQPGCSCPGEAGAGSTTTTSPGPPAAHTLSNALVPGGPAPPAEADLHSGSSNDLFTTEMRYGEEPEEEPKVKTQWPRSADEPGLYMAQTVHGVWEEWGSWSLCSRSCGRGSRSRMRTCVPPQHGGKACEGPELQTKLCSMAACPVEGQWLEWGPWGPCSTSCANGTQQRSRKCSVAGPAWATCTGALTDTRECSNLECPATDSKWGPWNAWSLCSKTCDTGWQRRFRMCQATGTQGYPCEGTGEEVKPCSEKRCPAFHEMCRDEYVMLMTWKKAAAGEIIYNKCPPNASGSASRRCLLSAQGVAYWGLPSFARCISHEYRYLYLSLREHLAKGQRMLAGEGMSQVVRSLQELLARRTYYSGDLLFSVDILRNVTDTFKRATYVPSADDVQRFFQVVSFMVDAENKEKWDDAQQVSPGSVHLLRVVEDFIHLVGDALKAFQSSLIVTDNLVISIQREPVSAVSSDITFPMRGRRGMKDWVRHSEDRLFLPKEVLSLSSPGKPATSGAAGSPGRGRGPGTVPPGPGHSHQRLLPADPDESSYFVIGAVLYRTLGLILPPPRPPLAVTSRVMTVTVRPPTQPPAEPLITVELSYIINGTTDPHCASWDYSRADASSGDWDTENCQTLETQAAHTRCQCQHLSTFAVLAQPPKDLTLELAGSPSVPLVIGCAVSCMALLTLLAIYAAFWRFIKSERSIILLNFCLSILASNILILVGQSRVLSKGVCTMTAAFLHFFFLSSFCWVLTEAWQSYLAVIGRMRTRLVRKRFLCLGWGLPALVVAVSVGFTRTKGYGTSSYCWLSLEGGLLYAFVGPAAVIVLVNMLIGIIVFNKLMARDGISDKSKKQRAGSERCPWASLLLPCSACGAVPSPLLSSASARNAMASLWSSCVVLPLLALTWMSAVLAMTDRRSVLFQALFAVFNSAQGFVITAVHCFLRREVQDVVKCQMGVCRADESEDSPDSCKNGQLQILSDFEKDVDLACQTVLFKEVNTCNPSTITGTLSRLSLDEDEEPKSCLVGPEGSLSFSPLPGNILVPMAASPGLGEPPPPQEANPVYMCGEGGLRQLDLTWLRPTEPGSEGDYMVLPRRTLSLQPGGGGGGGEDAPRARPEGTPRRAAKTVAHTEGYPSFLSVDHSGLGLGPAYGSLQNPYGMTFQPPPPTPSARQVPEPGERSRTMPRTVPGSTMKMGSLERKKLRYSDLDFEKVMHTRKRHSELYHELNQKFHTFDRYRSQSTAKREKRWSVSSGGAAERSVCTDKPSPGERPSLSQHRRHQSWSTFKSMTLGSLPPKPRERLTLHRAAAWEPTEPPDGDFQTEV
Briefly: Change in intracellular Ca2+ concentration in HA-ph01207#10-6 cell line (FLIPR Calcium 3, FLEXstation). The following applies: for rise in the intracellular Ca2+ concentration: peptide final concentration 1 nM. It is filed as cell-based. As for the experimental part: Changes in intracellular calcium (Ca^2+) concentrations caused by CCK-8S(SEQ ID NO: 14), CCK-8NS and CCK-4 were determined using the […] expression cell lines prepared in Example 2. The cell lines prepared in Example 2 are eight lines in which the protein encoded by ph01207 expresses as a FLAG-tag fusion protein and four lines in which the protein encoded by ph01207 expresses as a HA-tag fusion protein. Among these, in this example HA-ph01207#10-6 cell line was used as a line obtained by cellular cloning of one cell line that stably expresses the protein encoded by ph01207 as a HA-tag fusion protein. Although CCK-8NS is a CCK octapeptide consisting of the same amino acid sequence as CCK-8S (SEQ ID NO: 14), the seventh tyrosine residue from the C-terminal thereof is not sulfated. CCK-4 is a tetrapeptide consisting of the amino acid residues from the C-terminus to the fourth amino acid residue of CCK-8S (SEQ ID NO: 14).
as §1, with “CCK-8S (SEQ ID NO: 14), CCK-8NS and CCK-4 were each diluted with phosphate buffered saline (PBS) to make a 5 nM solution, and measurement was performed after adding 25 μL (final concentration 1 nM) of each. As a positive control that induces an increase in intracellular Ca^2+ concentration, A23187 (Calbiochem, Calif.) was used at a final concentration of 10 μM. As a negative control, CHO-K1 cell line that was used as a host in production of the HA-ph01207#10-6 cell line was used. Since the ph01207 expression vector was not transfected into the CHO-K1 cell line, the ph01207 gene product was not expressed therein.” left out

The conditions of experiment [2]: CCK-8S administered to diabetes patients (Bo, A. et al., 2000); cited from earlier work.

T1 sequence (O60241 13-1585): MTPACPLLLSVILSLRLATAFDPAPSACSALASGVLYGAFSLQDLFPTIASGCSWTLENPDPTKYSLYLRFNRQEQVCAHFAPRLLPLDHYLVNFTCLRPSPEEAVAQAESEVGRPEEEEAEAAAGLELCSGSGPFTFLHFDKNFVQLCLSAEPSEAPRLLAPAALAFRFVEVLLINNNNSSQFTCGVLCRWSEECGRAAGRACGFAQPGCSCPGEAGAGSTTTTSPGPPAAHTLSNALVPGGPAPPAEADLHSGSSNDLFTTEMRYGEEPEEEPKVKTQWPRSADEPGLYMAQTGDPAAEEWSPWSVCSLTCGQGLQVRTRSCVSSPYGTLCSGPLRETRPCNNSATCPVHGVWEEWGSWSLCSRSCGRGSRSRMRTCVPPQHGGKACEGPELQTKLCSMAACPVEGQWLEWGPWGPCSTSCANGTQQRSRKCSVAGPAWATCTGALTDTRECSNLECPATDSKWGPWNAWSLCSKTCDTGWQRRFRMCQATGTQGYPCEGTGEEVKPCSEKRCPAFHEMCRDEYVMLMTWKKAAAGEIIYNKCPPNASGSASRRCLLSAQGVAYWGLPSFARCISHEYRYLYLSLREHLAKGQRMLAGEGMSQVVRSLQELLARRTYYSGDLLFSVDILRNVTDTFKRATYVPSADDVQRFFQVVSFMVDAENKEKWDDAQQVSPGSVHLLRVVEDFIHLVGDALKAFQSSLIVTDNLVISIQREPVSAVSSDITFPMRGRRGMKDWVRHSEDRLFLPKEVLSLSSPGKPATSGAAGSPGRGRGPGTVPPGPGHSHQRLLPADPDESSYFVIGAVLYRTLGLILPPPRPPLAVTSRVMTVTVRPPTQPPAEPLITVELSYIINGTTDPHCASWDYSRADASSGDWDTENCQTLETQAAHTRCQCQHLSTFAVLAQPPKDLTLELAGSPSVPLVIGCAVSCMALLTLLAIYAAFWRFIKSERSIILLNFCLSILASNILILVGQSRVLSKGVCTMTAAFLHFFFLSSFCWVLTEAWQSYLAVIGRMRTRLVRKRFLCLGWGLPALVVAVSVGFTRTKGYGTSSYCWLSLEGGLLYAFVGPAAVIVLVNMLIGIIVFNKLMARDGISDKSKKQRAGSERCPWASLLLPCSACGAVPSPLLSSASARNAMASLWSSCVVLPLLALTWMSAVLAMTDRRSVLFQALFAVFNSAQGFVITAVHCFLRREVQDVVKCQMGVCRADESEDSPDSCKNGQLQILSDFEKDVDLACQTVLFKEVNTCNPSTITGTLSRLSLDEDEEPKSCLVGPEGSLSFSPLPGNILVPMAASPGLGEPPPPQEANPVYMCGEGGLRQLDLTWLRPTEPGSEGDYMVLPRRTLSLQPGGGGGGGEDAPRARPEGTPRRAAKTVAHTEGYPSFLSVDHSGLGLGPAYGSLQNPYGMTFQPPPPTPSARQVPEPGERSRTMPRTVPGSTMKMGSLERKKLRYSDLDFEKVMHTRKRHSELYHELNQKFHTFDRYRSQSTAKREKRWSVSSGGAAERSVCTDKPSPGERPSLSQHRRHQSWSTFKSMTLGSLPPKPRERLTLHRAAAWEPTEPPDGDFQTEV

For `CNc1ccc2oc(C[C@H]3O[C@@]4(CC[C@H]3C)O[C@H]([C@H](C)C(=O)c3ccc[nH]3)[C@H](C)C[C@H]4C)nc2c1C(=O)O` [A23187], the “response (intracellular Ca2+) to positive control” value in the experiment with CHO-K1 cell line (CHO-K1 host cell, A23187 20 μM (Examples 8 and 9)) is recorded as “observed similarly”; at 7tmHR gene product, “observed similarly”; in the experiment with hk01941 gene product it was “observed similarly”; in the experiment on variant 3 gene product, “observed similarly”.

Turning to CCK-8 Nonsulfated form [CCK-8NS], in experiment [1], the “rise in the intracellular Ca2+ concentration” value (shortened to “rise”) is reported as “not observed”. Moreover, the “increase in intracellular Ca2+ concentration” value in the experiment with CHO-K1 cell line was “no increase”.

As for “CCK-4: tetrapeptide consisting of the amino acid residues from the C-terminus to the fourth residue of CCK-8S”, the “rise” value in experiment [1] is recorded as “not observed”. Besides, the “increase in intracellular Ca2+ concentration” value in the experiment with CHO-K1 cell line was “no increase”.

As to “cholecystokinin octapeptide sulfated form [CCK-8S]”, the “level of increase in the intracellular Ca2+ concentration compared with that produced by A23187” value in experiment [1] (1 nM CCK-8S vs 10 μM A23187) was “roughly equal”. For the same compound, in experiment [1], the “rise” value is on record as “rose”. The “increase in intracellular Ca2+ concentration” value with CHO-K1 cell line was “no increase”. In addition, the “change in intracellular calcium concentration” value in the experiment with CHO-K1 cell line (host cell not transfected with variant 3 expression vector, CCK-8S (Example 9)) is “not observed”. The “change in intracellular calcium concentration” value in the experiment on CHO-K1 cell line (host cell transfected with neither 7tmHR nor hk01941 expression vector, CCK-8S (Example 8)) is reported as “not observed”. Moreover, in experiment [2], the “increase in insulin amounts” value is “promoted” and the “increase in postcibal glucose amount” value is given as “suppressed”.
